From PMC11992225, “Antibacterial compounds against non-growing and intracellular bacteria” (npj Antimicrobials and Resistance, 2025)
≈ marks a conversion by molar mass, not a printed value. Where “and” joins values, the source holds several entries; their conditions need not be identical. Identical values can stand only once.

Tests used:
S. aureus DSM2569 = assay: MIC, standard microdilution assay, growing S. aureus; format: cell-based, Staphylococcus aureus; settings: Staphylococcus aureus, DSM2569; S. aureus; CA-MHB pH 7.4; read-out: MIC (μM) CA-MHB
Outline: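 Broth microdilution was used throughout. UPEC, P. aeruginosa and S. aureus were tested in CA-MHB buffered with 40 mM HEPES (pH 7.4); UPEC was additionally tested in LPM with 30 mM MES (pH 5.5). S. flexneri was grown in TSB. All determinations were run in triplicate.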

non-growing UPEC CFT073 [1] = assay: Dilution-regrowth assay (screen, hit validation, dose-response) on stationary-phase UPEC; format: cell-based, Escherichia coli; settings: for Regrowth, OD600 at 6h or 8h after dilution into drug-free medium: average
Outline: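 Regrowth (OD600 after 6 h, 37 °C) of diluted non-growing CFT073, following 24 h compound treatment of 24 h stationary cultures, defines activity relative to untreated control. Screen at 20 µM, validation at 20, 10, 5 µM (duplicates), dose–response in three biological replicates fitted by five-parameter logistic.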

non-growing UPEC CFT073 [2] = assay: Dose-dependent killing analysis (CFU spot-plating) of stationary-phase UPEC; format: cell-based, Escherichia coli; settings: E. coli in 1:4 CA-MHB (pH 7.4), individual replicates
Outline: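 Killing assessed by CFU counts: overnight 37 °C LB agar spot plates (10 μl drops of 10-fold PBS dilutions) scored at the lowest dilution with distinct colonies. Samples were compound-treated non-growing UPEC CFT073, 200 μl per well. Performed as three biological replicates.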

[3] = test system: non-growing P. aeruginosa DSM1117; assay: Dose-dependent killing analysis (CFU spot-plating) of stationary-phase P. aeruginosa; format: cell-based, Pseudomonas aeruginosa; settings: P. aeruginosa; for log10(CFU/ml) after treatment: individual replicates; for killing, average Δlog10(CFU/ml): vs CFU before treatment
Outline: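 Viability by CFU: samples serially diluted 10-fold in PBS, spotted on LB agar, grown overnight at 37 °C, and colonies counted at the lowest resolvable dilution. Non-growing P. aeruginosa DSM1117 had been dosed for 24 h in 1:4 CA-MHB (pH 7.4); three biological replicates.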

[4] = test system: non-growing S. aureus DSM2569; assay: Dose-dependent killing analysis (CFU spot-plating) of stationary-phase S. aureus; format: cell-based, Staphylococcus aureus; settings: S. aureus, individual replicates
Outline: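 Survival was scored as CFU after overnight growth at 37 °C on LB agar, using spots from 10-fold PBS dilutions of treated cultures. Non-growing S. aureus DSM2569 had been exposed to compound for 24 h in 1:4 CA-MHB, pH 7.4. Three biological replicates were run.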

Q: `COc1c(N2C[C@@H]3CCCN[C@@H]3C2)c(F)cc2c(=O)c(C(=O)O)cn(C3CC3)c12` [Moxifloxacin] was tested. Which MIC (S. aureus DSM2569) did it give?
A: The MIC was 0.125 µM (≈ 0.0502 µg/mL).

Q: And the “Regrowth, OD600 at 6h or 8h after dilution into drug-free medium” value (non-growing UPEC CFT073 [1]; E. coli in 1:4 CA-MHB (pH 7.4), concentration 0.25)?
A: Its value is 0.565.

Q: And the “Regrowth, OD600 at 6h or 8h after dilution into drug-free medium” value (non-growing UPEC CFT073 [1]; E. coli in 1:4 CA-MHB (pH 7.4), concentration 0.5)?
A: Its value is 0.481.

Q: And the “Regrowth, OD600 at 6h or 8h after dilution into drug-free medium” value (non-growing UPEC CFT073 [1]; E. coli in 1:4 CA-MHB (pH 7.4), concentration 1)?
A: Its value is 0.120.

Q: And the “Regrowth, OD600 at 6h or 8h after dilution into drug-free medium” value (non-growing UPEC CFT073 [1]; E. coli in 1:4 CA-MHB (pH 7.4), concentration 2.5)?
A: Its value is 0.067.

Q: What about the “Regrowth, OD600 at 6h or 8h after dilution into drug-free medium” value (non-growing UPEC CFT073 [1]; E. coli in 1:4 CA-MHB (pH 7.4), concentration 5) of the same compound?
A: Its value is 0.066.

Q: And the “Regrowth, OD600 at 6h or 8h after dilution into drug-free medium” value (non-growing UPEC CFT073 [1]; E. coli in 1:4 CA-MHB (pH 7.4), concentration 10)?
A: Its value is 0.068.

Q: And the “Regrowth, OD600 at 6h or 8h after dilution into drug-free medium” value (non-growing UPEC CFT073 [1]; E. coli in 1:4 CA-MHB (pH 7.4), concentration 30)?
A: Its value is 0.065.

Q: And the “Regrowth, OD600 at 6h or 8h after dilution into drug-free medium” value (non-growing UPEC CFT073 [1]; E. coli in LPM (pH 5.5), concentration 0.25)?
A: The value was 0.577.

Q: What about the “Regrowth, OD600 at 6h or 8h after dilution into drug-free medium” value (non-growing UPEC CFT073 [1]; E. coli in LPM (pH 5.5), concentration 0.5) of the same compound?
A: Its value is 0.563.

Q: And the “Regrowth, OD600 at 6h or 8h after dilution into drug-free medium” value (non-growing UPEC CFT073 [1]; E. coli in LPM (pH 5.5), concentration 1)?
A: Its value is 0.570.

Q: What about the “Regrowth, OD600 at 6h or 8h after dilution into drug-free medium” value (non-growing UPEC CFT073 [1]; E. coli in LPM (pH 5.5), concentration 2.5) of the same compound?
A: The value was 0.577.

Q: And the “Regrowth, OD600 at 6h or 8h after dilution into drug-free medium” value (non-growing UPEC CFT073 [1]; E. coli in LPM (pH 5.5), concentration 5)?
A: Its value is 0.574.

Q: What about the “Regrowth, OD600 at 6h or 8h after dilution into drug-free medium” value (non-growing UPEC CFT073 [1]; E. coli in LPM (pH 5.5), concentration 10) of the same compound?
A: The value was 0.567.

Q: What about the “Regrowth, OD600 at 6h or 8h after dilution into drug-free medium” value (non-growing UPEC CFT073 [1]; E. coli in LPM (pH 5.5), concentration 30) of the same compound?
A: The value was 0.530.

Q: And the EC50 (non-growing UPEC CFT073 [1]; Escherichia coli, E. coli, pH 7.4, regrowth delay of non-growing bacteria, 1:4 CA-MHB, 24 h treatment, OD600 6 h after 2500-fold dilution, read-out: EC50)?
A: Its EC50 is 649 nM.

Q: And the “log10(CFU/ml) after treatment” value (non-growing UPEC CFT073 [2]; concentration 0.25)?
A: Its value is 8.602 log10(CFU/ml) and 8.380 log10(CFU/ml) and 8.255 log10(CFU/ml).

Q: And the “log10(CFU/ml) after treatment” value (non-growing UPEC CFT073 [2]; concentration 0.5)?
A: The value was 8.041 log10(CFU/ml) and 7.903 log10(CFU/ml) and 7.699 log10(CFU/ml).

Q: What about the “log10(CFU/ml) after treatment” value (non-growing UPEC CFT073 [2]; concentration 1) of the same compound?
A: Its value is 7.415 log10(CFU/ml) and 6.845 log10(CFU/ml) and 6.903 log10(CFU/ml).

Q: And the “log10(CFU/ml) after treatment” value (non-growing UPEC CFT073 [2]; concentration 2.5)?
A: Its value is 5.954 log10(CFU/ml) and 5.230 log10(CFU/ml) and 5.380 log10(CFU/ml).

Q: What about the “log10(CFU/ml) after treatment” value (non-growing UPEC CFT073 [2]; concentration 5) of the same compound?
A: The value was 5.602 log10(CFU/ml) and 5.204 log10(CFU/ml) and 5.146 log10(CFU/ml).

Q: And the “log10(CFU/ml) after treatment” value (non-growing UPEC CFT073 [2]; concentration 10)?
A: Its value is 6.114 log10(CFU/ml) and 4.903 log10(CFU/ml) and 5.000 log10(CFU/ml).

Q: What about the “log10(CFU/ml) after treatment” value ([3]; concentration 0.1) of the same compound?
A: Its value is 8.699 log10(CFU/ml) and 8.778 log10(CFU/ml) and 8.477 log10(CFU/ml).

Q: And the “killing, average Δlog10(CFU/ml)” value ([3]; concentration 0.1)?
A: Its value is 0.236 log10(CFU/ml).

Q: What about the “log10(CFU/ml) after treatment” value ([3]; concentration 0.5) of the same compound?
A: The value was 8.301 log10(CFU/ml) and 7.778 log10(CFU/ml) (2×).

Q: And the “killing, average Δlog10(CFU/ml)” value ([3]; concentration 0.5)?
A: The value was 0.935 log10(CFU/ml).

Q: What about the “log10(CFU/ml) after treatment” value ([3]; concentration 2.5) of the same compound?
A: The value was 5.845 log10(CFU/ml) and 6.301 log10(CFU/ml) and 4.699 log10(CFU/ml).

Q: And the “killing, average Δlog10(CFU/ml)” value ([3]; concentration 2.5)?
A: Its value is 3.272 log10(CFU/ml).

Q: What about the “log10(CFU/ml) after treatment” value ([3]; concentration 10) of the same compound?
A: The value was “=<4 log10(CFU/ml) (2×) and 4.477 log10(CFU/ml)”.

Q: And the “killing, average Δlog10(CFU/ml)” value ([3]; concentration 10)?
A: The value was 4.728 log10(CFU/ml).

Q: What about the “log10(CFU/ml) after treatment” value ([4]; concentration 0.1) of the same compound?
A: Its value is 8.934 log10(CFU/ml) and 9.196 log10(CFU/ml) and 8.708 log10(CFU/ml).

Q: And the “log10(CFU/ml) after treatment” value ([4]; concentration 0.5)?
A: Its value is 8.748 log10(CFU/ml) and 9.004 log10(CFU/ml) and 8.204 log10(CFU/ml).

Q: What about the “log10(CFU/ml) after treatment” value ([4]; concentration 2.5) of the same compound?
A: The value was 8.505 log10(CFU/ml) and 8.431 log10(CFU/ml) and 8.167 log10(CFU/ml).

Q: What about the “log10(CFU/ml) after treatment” value ([4]; concentration 10) of the same compound?
A: The value was 8.158 log10(CFU/ml) and 8.021 log10(CFU/ml) and 7.519 log10(CFU/ml).
